One experiment addresses D1 (Homo sapiens, UniProt P21728). In words: PDSP radioligand binding, dopamine receptor D1. The text has this:
(§1) [17] and http://pdsp.med.unc.edu/UNC-CH%20Protocol%20Book.pdf.

For a further experiment, the target named is H3 (Homo sapiens, UniProt Q9Y5N1). In words: PDSP radioligand binding, histamine receptor H3.
Description: as §1

For another experiment, the target named is 5-ht1e (Homo sapiens, UniProt P28566). In words: PDSP radioligand binding, serotonin receptor 5-HT1E.
Sequence of 5-ht1e (P28566 whole entry, species assumed): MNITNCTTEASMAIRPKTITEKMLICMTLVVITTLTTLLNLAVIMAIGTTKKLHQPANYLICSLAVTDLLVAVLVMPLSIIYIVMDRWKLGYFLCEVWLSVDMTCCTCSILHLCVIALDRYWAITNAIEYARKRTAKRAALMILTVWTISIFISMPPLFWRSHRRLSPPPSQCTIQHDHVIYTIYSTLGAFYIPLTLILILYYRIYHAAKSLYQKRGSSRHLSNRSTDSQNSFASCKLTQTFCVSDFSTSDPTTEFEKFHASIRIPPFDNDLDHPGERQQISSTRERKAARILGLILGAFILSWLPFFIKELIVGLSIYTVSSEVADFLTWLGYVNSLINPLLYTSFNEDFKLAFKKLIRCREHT
Description: as §1

The next experiment has as its target 5-HT1D (Homo sapiens, UniProt P28221). Put plainly: PDSP radioligand binding, serotonin receptor 5-HT1D.
Description: as §1

The target of the next experiment is T1, Alpha2B (Homo sapiens, UniProt P18089).
T1 sequence (P18089 1-450): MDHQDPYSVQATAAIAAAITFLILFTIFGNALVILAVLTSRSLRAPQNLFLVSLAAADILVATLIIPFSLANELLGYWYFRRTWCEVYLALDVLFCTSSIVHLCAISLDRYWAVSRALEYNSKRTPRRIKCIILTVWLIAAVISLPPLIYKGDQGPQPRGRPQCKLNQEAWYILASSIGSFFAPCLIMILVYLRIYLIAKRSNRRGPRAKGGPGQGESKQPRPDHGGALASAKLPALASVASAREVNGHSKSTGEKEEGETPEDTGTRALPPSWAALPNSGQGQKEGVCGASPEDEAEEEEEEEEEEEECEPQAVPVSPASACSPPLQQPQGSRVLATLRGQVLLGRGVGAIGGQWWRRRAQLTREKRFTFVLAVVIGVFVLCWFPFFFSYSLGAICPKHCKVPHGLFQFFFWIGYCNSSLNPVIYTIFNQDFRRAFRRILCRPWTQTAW
Put plainly: PDSP radioligand binding, adrenoceptor α2B.
Description: as §1

The target of another experiment is 5-HT7 (Homo sapiens, UniProt P34969). Put plainly: PDSP radioligand binding, serotonin receptor 5-HT7.
Sequence of 5-HT7 (P34969 whole entry, species assumed): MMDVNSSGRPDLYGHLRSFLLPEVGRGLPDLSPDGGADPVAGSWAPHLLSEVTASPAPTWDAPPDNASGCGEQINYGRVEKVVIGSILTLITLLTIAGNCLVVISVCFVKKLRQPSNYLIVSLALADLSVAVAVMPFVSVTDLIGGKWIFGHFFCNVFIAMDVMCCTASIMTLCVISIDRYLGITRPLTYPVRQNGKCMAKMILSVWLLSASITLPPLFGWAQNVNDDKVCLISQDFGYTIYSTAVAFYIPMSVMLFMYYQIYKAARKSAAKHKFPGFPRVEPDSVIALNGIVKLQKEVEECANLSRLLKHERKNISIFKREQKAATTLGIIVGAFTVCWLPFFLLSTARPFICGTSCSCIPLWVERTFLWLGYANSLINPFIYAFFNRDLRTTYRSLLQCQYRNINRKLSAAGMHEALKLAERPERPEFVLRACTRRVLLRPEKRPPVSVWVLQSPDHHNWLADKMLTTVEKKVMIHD
Description: as §1

The target in the next experiment is H1 (Homo sapiens, UniProt P35367). Put plainly: PDSP radioligand binding, histamine receptor H1.
Description: as §1

The target of a further experiment is T2, M5 (Homo sapiens, UniProt P08912).
T2 sequence (P08912 1-532): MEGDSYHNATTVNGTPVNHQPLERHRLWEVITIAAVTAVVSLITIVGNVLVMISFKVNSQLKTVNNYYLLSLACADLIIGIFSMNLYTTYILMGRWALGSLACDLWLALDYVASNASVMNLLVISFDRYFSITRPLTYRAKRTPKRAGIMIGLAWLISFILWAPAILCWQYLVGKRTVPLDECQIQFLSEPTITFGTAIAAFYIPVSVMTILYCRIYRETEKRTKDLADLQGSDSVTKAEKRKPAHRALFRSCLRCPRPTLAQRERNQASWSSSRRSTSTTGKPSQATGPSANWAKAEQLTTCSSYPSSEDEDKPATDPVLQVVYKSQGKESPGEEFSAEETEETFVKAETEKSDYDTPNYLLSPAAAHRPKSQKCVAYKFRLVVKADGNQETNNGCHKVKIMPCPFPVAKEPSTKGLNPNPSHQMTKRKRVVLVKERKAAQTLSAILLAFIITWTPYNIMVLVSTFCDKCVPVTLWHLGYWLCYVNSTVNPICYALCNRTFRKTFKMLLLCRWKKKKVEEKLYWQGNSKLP
Put plainly: PDSP radioligand binding, muscarinic receptor M5.
Description: as §1

For the next experiment, the target named is GABAB (Homo sapiens, UniProt Q9UBS5). In words: PDSP radioligand binding, GABA-B.
Description: as §1

A further experiment has as its target 5-ht5a (Homo sapiens, UniProt P47898). Put plainly: PDSP radioligand binding, serotonin receptor 5-HT5.
Description: as §1

The next experiment concerns the target M3 (Homo sapiens, UniProt P20309). In words: PDSP radioligand binding, muscarinic receptor M3.
Description: as §1

Another experiment concerns the target 5-HT2A (Homo sapiens, UniProt P28223). In words: PDSP radioligand binding, serotonin receptor 5-HT2A.
Description: as §1

For the next experiment, the target named is A2B4 (Rattus norvegicus, UniProt P12389+P12392). Put plainly: PDSP radioligand binding, nicotinic receptor α2 ß4.
Sequence of A2B4 (P12389 28-511): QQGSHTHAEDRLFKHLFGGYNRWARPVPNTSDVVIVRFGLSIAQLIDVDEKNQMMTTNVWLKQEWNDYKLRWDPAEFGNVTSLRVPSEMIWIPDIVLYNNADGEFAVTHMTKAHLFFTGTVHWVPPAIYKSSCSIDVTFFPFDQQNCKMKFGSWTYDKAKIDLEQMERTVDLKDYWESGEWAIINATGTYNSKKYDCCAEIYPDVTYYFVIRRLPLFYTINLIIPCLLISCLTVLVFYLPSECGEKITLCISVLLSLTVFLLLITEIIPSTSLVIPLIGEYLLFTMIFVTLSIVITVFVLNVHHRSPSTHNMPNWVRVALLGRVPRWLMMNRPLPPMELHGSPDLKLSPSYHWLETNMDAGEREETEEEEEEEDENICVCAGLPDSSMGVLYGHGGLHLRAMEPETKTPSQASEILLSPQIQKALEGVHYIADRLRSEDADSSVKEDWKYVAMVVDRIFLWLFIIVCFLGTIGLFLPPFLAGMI
Sequence of A2B4 (P12392 21-495): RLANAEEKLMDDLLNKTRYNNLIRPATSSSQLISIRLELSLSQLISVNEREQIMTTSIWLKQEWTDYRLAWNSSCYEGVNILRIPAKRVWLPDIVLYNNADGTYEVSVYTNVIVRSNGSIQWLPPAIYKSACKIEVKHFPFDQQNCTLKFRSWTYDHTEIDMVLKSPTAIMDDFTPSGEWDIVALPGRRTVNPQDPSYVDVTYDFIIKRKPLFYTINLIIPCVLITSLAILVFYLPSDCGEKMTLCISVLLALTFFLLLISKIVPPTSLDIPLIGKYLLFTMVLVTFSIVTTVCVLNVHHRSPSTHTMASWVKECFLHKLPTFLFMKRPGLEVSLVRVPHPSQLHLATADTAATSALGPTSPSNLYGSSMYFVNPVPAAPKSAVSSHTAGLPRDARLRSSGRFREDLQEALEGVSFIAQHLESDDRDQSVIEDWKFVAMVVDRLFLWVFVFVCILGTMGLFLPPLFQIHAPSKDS
Description: as §1

A further experiment concerns the target T3, Alpha2C (Homo sapiens, UniProt P18825).
T3 sequence (P18825 1-462): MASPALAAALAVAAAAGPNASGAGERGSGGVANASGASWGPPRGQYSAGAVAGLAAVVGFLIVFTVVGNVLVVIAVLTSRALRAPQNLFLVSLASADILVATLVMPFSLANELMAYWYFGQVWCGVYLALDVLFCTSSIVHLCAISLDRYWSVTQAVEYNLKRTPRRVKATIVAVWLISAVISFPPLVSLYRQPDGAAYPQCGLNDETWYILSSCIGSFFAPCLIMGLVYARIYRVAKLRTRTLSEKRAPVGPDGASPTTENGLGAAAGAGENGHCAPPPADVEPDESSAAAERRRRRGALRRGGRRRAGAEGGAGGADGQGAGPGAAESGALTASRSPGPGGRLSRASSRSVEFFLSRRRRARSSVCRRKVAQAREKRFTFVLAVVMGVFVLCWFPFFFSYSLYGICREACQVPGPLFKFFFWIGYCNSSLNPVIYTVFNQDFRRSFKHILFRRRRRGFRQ
Put plainly: PDSP radioligand binding, adrenoceptor α2C.
Description: as §1

The next experiment addresses T4, 5-HT2C (Homo sapiens, UniProt P28335).
T4 sequence (P28335 33-458): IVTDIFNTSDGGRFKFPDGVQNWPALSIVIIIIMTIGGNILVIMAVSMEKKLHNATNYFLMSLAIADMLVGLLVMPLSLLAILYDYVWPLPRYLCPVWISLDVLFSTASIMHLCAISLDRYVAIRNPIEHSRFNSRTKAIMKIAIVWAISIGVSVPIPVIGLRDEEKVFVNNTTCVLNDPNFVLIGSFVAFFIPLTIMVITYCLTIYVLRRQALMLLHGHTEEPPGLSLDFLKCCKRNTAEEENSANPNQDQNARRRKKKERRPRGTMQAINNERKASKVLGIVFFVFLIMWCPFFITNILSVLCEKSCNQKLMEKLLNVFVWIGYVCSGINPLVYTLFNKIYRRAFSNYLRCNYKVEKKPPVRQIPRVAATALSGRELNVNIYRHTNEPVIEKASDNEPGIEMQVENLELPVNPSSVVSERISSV
In words: PDSP radioligand binding, serotonin receptor 5-HT2C.
Description: as §1

In the next experiment the target is KOR (Homo sapiens, UniProt P41145). Put plainly: PDSP radioligand binding, opioid receptor KOR.
Sequence of KOR (P41145 whole entry): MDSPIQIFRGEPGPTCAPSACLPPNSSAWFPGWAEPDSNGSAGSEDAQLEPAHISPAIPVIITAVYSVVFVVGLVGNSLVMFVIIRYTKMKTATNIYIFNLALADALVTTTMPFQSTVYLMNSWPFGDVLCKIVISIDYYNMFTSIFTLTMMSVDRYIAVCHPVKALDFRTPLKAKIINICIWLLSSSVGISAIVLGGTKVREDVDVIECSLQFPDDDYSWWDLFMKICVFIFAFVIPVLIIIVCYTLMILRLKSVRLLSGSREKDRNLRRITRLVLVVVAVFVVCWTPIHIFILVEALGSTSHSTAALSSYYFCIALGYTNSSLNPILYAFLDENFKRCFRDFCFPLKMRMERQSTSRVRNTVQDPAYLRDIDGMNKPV
Description: as §1

Another experiment deals with A3B4 (Rattus norvegicus, UniProt P04757+P12392). In words: PDSP radioligand binding, nicotinic receptor α3 ß4.
Sequence of A3B4 (P04757 26-499): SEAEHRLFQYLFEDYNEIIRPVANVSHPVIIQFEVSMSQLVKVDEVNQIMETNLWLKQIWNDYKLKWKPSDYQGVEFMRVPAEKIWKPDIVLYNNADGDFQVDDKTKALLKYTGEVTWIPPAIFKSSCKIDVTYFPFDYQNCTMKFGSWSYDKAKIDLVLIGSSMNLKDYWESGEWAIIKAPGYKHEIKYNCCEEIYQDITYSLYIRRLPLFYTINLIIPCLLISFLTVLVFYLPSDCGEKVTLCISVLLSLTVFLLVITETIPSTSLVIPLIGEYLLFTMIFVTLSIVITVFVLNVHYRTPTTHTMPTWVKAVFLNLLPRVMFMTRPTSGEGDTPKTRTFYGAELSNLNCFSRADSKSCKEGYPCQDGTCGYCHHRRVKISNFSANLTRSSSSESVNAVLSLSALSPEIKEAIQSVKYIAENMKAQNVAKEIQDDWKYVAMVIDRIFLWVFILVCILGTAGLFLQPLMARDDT
Sequence of A3B4 (P12392 21-495): as the sequence (P12392 21-495) above
Description: as §1

In a further experiment the target is A2B2 (Rattus norvegicus, UniProt P12389+P12390). Put plainly: PDSP radioligand binding, nicotinic receptor α2 ß2.
Description: as §1

Results on 3 compounds are retold here after paper PMC3602154 (PLoS ONE, 2013).

Structures are written as SMILES.

One may read the Ki as the dissociation constant of the complex between target and ligand, obtained from inhibition or displacement.

Sequence of 5-ht5a (P47898 whole entry, species assumed): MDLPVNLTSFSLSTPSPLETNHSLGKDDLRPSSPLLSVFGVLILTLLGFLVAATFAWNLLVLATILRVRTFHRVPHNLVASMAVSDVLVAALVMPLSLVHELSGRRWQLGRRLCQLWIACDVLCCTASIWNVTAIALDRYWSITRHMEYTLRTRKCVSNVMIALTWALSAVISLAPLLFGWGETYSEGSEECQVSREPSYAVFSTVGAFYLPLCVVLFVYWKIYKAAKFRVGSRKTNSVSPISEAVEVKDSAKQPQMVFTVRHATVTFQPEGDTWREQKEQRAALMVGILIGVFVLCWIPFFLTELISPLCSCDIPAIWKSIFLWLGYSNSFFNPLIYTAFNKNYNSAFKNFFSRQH
Sequence of M3 (P20309 whole entry): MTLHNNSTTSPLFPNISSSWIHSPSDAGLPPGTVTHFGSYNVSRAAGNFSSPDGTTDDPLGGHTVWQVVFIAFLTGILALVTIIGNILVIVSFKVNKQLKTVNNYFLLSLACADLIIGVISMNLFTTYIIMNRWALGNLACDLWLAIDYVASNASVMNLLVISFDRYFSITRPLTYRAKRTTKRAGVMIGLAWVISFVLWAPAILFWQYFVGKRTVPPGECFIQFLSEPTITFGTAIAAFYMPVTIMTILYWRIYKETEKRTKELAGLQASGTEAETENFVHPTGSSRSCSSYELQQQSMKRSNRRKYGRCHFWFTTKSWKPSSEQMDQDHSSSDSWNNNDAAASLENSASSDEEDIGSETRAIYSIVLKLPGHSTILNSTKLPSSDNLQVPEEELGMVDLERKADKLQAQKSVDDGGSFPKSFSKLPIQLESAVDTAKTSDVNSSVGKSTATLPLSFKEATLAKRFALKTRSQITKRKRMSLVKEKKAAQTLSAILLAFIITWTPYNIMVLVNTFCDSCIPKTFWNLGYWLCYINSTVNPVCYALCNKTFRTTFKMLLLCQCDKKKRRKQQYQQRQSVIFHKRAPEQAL
Sequence of H3 (Q9Y5N1 whole entry): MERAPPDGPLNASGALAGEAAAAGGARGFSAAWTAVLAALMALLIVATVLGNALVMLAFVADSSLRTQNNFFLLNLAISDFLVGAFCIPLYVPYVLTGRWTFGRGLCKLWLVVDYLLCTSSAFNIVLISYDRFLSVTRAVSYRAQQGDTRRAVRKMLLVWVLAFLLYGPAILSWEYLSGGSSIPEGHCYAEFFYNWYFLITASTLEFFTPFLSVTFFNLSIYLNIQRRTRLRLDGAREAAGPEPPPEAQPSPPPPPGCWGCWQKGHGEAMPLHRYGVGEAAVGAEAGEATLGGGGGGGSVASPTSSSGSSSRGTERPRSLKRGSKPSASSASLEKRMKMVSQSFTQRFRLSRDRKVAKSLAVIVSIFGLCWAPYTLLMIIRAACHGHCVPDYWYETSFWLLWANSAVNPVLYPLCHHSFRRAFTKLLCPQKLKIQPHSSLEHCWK
Sequence of D1 (P21728 whole entry): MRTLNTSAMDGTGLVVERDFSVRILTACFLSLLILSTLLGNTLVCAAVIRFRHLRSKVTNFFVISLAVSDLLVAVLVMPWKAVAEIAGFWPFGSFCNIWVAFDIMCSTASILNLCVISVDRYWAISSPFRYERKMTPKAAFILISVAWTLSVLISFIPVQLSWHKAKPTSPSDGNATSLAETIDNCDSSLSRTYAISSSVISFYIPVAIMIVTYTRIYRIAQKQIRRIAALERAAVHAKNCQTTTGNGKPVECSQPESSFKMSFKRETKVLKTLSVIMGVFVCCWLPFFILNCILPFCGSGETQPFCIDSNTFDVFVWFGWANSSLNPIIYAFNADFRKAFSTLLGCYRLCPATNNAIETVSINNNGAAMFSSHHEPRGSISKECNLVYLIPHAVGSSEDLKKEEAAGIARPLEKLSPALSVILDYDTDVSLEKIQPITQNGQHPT
Sequence of 5-HT1D (P28221 whole entry, species assumed): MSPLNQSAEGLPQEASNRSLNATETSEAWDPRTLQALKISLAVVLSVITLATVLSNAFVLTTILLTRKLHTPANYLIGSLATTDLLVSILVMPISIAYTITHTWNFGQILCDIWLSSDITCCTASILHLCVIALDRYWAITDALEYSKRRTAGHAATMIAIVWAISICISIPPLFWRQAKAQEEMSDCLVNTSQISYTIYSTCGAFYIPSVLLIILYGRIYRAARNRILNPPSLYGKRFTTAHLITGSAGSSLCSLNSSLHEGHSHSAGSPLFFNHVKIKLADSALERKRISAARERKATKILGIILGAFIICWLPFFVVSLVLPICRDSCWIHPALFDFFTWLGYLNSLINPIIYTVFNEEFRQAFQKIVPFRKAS

Regarding `CCNC1(c2cccc(OC)c2)CCCCC1=O` (racemic) [Methoxetamine, (RS)-2-(ethylamino)-2-(3-methoxyphenyl)cyclohexanone], the Ki on D1, on H3, at 5-ht1e, at 5-HT1D, at Alpha2B and on 5-HT7 was over 10 µM throughout. Besides, the Ki was 2.96 µM at H1; over 10 µM at M5; over 10 µM on GABAB; over 10 µM on 5-ht5a; over 10 µM on M3; over 10 µM on 5-HT2A. Moreover, the Ki on A2B4, on Alpha2C, on 5-HT2C, at KOR, on A3B4 and at A2B2 was over 10 µM in each case.
On to `COc1cccc(C2(N3CCCCC3)CCCCC2)c1` [3-MeO-PCP, 1-[1-(3-methoxyphenyl)cyclohexyl]piperidine], for which the Ki at D1, at H3, at 5-ht1e, at 5-HT1D, on Alpha2B and at 5-HT7 was over 10 µM throughout. Also, the inhibition constant (Ki) at H1, on M5, at GABAB, at 5-ht5a, at M3 and on 5-HT2A was over 10 µM each time. Also, the inhibitory constant (Ki) at A2B4, at Alpha2C, at 5-HT2C, at KOR, on A3B4 and on A2B2 was over 10 µM throughout.
Consider `COc1ccc(C2(N3CCCCC3)CCCCC2)cc1` [4-MeO-PCP, 1-[1-(4-methoxyphenyl)cyclohexyl]piperidine], for which the Ki on D1, on H3, at 5-ht1e, at 5-HT1D, on Alpha2B and on 5-HT7 was over 10 µM each time. The Ki at H1, at M5, on GABAB, on 5-ht5a, on M3 and on 5-HT2A was over 10 µM each time. Also, the Ki on A2B4, at Alpha2C, at 5-HT2C, at KOR, on A3B4 and on A2B2 was over 10 µM throughout.
